Assay results published in PubChem BioAssay (NCI).
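Where inhibition never reached the appropriate level, the endpoint shown equals the highest concentration tested. Otherwise, values were interpolated linearly from a five-concentration, 48-hour dose response in 96-well plates. GI50: concentration for 50% inhibition of growth. The concentration for full growth arrest is given as TGI.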 Where a SMILES comes first, the peptide text is derived from it. The star is where a group is joined. Boc = CC(C)(C)OC(=O)*

What was measured:
Assay in all cases: NCI-60 cell line screen, 48 h
NCI-H460 lung = system: NCI-H460 lung
CCRF-CEM leukemia = system: CCRF-CEM leukemia
MOLT-4 leukemia = system: MOLT-4 leukemia
ACHN renal = system: ACHN renal
OVCAR-8 ovarian = system: OVCAR-8 ovarian
COLO 205 colon = system: COLO 205 colon
HCT-116 colon = system: HCT-116 colon
PC-3 prostate = system: PC-3 prostate
A549 NSCLC = system: A549 NSCLC

SMILES	TGI (NCI-H460 lung) [µM]	TGI (CCRF-CEM leukemia) [µM]	TGI (MOLT-4 leukemia) [µM]	TGI (ACHN renal) [µM]	TGI (OVCAR-8 ovarian) [µM]	TGI (COLO 205 colon) [µM]	TGI (HCT-116 colon) [µM]	TGI (PC-3 prostate) [µM]	TGI (A549 NSCLC) [µM]	GI50 (CCRF-CEM leukemia) [µM]	GI50 (MOLT-4 leukemia) [µM]	GI50 (ACHN renal) [µM]	GI50 (COLO 205 colon) [µM]	GI50 (HCT-116 colon) [µM]	GI50 (PC-3 prostate) [µM]	GI50 (NCI-H460 lung) [µM]	GI50 (A549 NSCLC) [µM]	GI50 (OVCAR-8 ovarian) [µM]
CCN(CCO)CC1COc2ccccc2O1 (stereo not given)	> 100	> 100	> 100	> 100	> 100	> 100	> 100	> 100	> 100	–	–	–	–	–	–	–	–	–
COC(=O)[C@]12CC[C@H]3CN(C(=O)OCc4ccccc4)[C@H]([C@H]31)[C@H](c1ccco1)N2S(=O)(=O)c1ccc(C)cc1	87.8	> 100	> 100	> 100	> 100	38.4	29.2	> 100	> 100	–	–	–	–	–	–	–	–	–
C=CCOC(=O)CC[N+]1=CCC(c2ccccc2)(c2ccccc2)O1	> 100	–	> 100	> 100	> 100	> 100	> 100	> 100	> 100	–	–	–	–	–	–	–	–	–
CC(=O)N/N=C1\NC(=O)C[C@H]2[C@@H]3CC=C4C[C@@H](OC(C)=O)CC[C@]4(C)[C@H]3CC[C@]12C	–	> 100	> 100	52.7	> 100	> 100	> 100	> 100	> 100	–	–	–	–	–	–	–	–	–
COC(=O)c1c2c(cc3c1CC1(C3)Cc3cc4c(c(C(=O)OC)c3C1)CCCC4)CCCC2	–	96	> 100	> 100	> 100	> 100	> 100	39.5	> 100	–	–	–	–	–	–	–	–	–
COc1ccc2cc(-c3ccc(-c4ccc(C(=N)N)s4)s3)ccc2c1	–	4.21	6.7	8.76	–	4.24	4.11	4.33	–	1.51	2.17	3.06	2.04	2.08	2.13	–	–	–
O=C(c1cc2ccccc2cc1O)N1CCCCC1	> 100	42.6	42.7	> 100	> 100	> 100	> 100	> 100	–	–	–	–	–	–	–	–	–	–
O=C(CNc1ccccc1Cl)Nn1c(-c2ccccc2)nc2ccccc2c1=O	> 100	70.5	57.7	> 100	> 100	34.6	> 100	99	> 100	–	–	–	–	–	–	–	–	–
O=C1C[C@H](Sc2ccccc2)C2(OCCO2)[C@@H](Sc2ccccc2)C1	> 44.5	1.76	–	5.62	8.02	15.4	4.81	13.8	28	–	–	–	–	–	–	–	–	–
CN(C)c1ccc(C=C2N=C(c3ccccc3)N(c3cc(C(=O)c4ccccc4)ccc3N3C(=O)/C(=C/c4ccc(N(C)C)cc4)N=C3c3ccccc3)C2=O)cc1	> 100	> 100	14.9	> 100	73.6	19.4	95.4	28.2	> 100	–	–	–	–	–	–	–	–	–
C=CC[C@]12C[C@@H](C(=O)OC)N(C(=O)OC)[C@H]1N(S(=O)(=O)c1ccccc1)c1ccccc12	> 100	> 100	> 100	> 100	> 100	–	> 100	> 100	> 100	–	–	–	–	–	–	–	–	–
Clc1ccc(-c2nn3c(-c4ccncc4)nnc3s2)cc1	> 100	> 100	> 100	> 100	> 100	> 100	> 100	> 100	> 100	–	–	–	–	–	–	–	–	–
Cc1nn(C(=O)Cc2ccccc2)c2c1C(c1ccc(O)cc1)SC(N)=N2 (stereo not given)	> 100	> 100	> 100	> 100	> 100	> 100	> 100	> 100	> 100	–	–	–	–	–	–	–	–	–
O=C(NCCN1CCOCC1)c1ccc2cc(C(=O)N3CC(CCl)c4ccc([N+](=O)[O-])cc43)[nH]c2c1 (stereo not given)	26.1	> 100	39.1	45.2	35.4	> 100	> 100	48.8	26.1	–	–	–	–	–	–	–	–	–
Nc1c(-c2cccc3ccccc23)c2ccc([N+](=O)[O-])cc2c(=O)n1-c1nc2ccccc2s1	> 100	> 100	> 27.5	> 100	10.5	> 100	> 40.2	> 35.3	> 53.4	–	–	–	–	–	–	–	–	–
COc1cc(C2SCC(=O)N2c2ccc(NC(=O)c3ccc(N4C(=O)CSC4c4cc(OC)c(OC)c(OC)c4)cc3)cc2)cc(OC)c1OC (stereo not given)	> 100	> 100	> 100	> 100	> 100	> 100	> 100	> 100	> 100	–	–	–	–	–	–	–	–	–
COc1cc(NS(C)(=O)=O)ccc1N1Cc2cnc3ccc4[nH]c(C)cc1c4c23	> 100	> 100	> 100	> 100	> 100	> 100	> 100	> 100	> 100	–	–	–	–	–	–	–	–	–
CC(C)(C)OC(=O)NCC(=O)NCC(=O)NCC(=O)NCC(=O)O (Boc-GGGG-OH)	> 100	> 100	> 100	> 100	> 100	> 100	> 100	> 100	> 100	–	–	–	–	–	–	–	–	–
COc1ccc(C2(CC(C)O)SCCCS2)cc1 (stereo not given)	> 100	> 100	> 100	> 100	> 100	> 100	> 100	> 100	> 100	–	–	–	–	–	–	–	–	–
C=CCO/N=C/c1cc(NC(=S)c2ccoc2C)ccc1Cl	–	> 100	29.4	19.4	33.9	27.5	> 100	27.6	> 100	–	–	–	–	–	–	–	–	–
C/C=C/C=C/c1nc(C#N)c(N)o1	–	> 100	> 100	> 100	> 100	> 100	> 100	> 100	> 100	–	–	–	–	–	–	–	–	–
CCCCC1c2c([nH]c3ccccc23)C2C(=O)N(c3ccc(OC)cc3)C(=O)C2C1CCC (stereo not given)	> 10	9.12	7.97	> 10	8.24	6.34	7.56	7.46	> 10	–	–	–	–	–	–	–	–	–
CCN(CC)CCOc1ccc(N2C(=O)c3cc(OC)c(OC)cc3C2=O)cc1	> 100	> 100	> 100	> 100	> 100	> 100	> 100	> 100	> 100	–	–	–	–	–	–	–	–	–

SMILES	TGI (NCI-H460 lung) [µM]	TGI (CCRF-CEM leukemia) [µM]	TGI (MOLT-4 leukemia) [µM]	TGI (ACHN renal) [µM]	TGI (OVCAR-8 ovarian) [µM]	TGI (COLO 205 colon) [µM]	TGI (HCT-116 colon) [µM]	TGI (PC-3 prostate) [µM]	TGI (A549 NSCLC) [µM]	GI50 (CCRF-CEM leukemia) [µM]	GI50 (MOLT-4 leukemia) [µM]	GI50 (ACHN renal) [µM]	GI50 (COLO 205 colon) [µM]	GI50 (HCT-116 colon) [µM]	GI50 (PC-3 prostate) [µM]	GI50 (NCI-H460 lung) [µM]	GI50 (A549 NSCLC) [µM]	GI50 (OVCAR-8 ovarian) [µM]
COc1cc(C2CC(C)(Nc3ccccc3)Oc3cc4c(cc32)OCO4)cc(OC)c1OC (stereo not given)	25.6	3.72	> 31.6	> 90.7	> 100	5.27	> 51.2	> 100	> 100	–	–	–	–	–	–	–	–	–
COc1ccc2nc3cc(Cl)ccc3c(NCCCNCCCNc3c4ccc(Cl)cc4nc4ccc(OC)cc34)c2c1	0.0131	14.8	> 100	0.174	–	0.158	–	0.182	0.165	–	–	–	–	–	–	–	–	–
CCN(C(=S)N[C@@H](Cc1ccccc1)C(=O)N[C@@H](CC(C)C)C(=O)OC)c1ccccc1	> 100	> 100	81.2	> 100	> 100	> 100	> 100	> 100	> 100	–	–	–	–	–	–	–	–	–
COc1ccc2cc3c4cc5c(cc4cc[n+]3cc2c1OC)OCO5	> 100	35.5	> 100	> 100	> 94.8	6.73	> 100	> 100	> 100	–	–	–	–	–	–	–	–	–
O=c1c2cc3c(cc2[nH]c2ncccc12)OCO3	> 10	> 10	> 10	> 10	> 10	> 10	> 10	> 10	> 10	–	–	–	–	–	–	–	–	–
Cc1csc(-c2cn(C)c3c2C(=O)C(N)=CC3=O)n1	15.9	> 100	> 27.9	> 52.1	> 100	> 100	> 100	> 100	8.76	–	–	–	–	–	–	–	–	–
Cc1cc2[nH]c3[nH]c(=O)[nH]c(=O)c3c2cc1C	–	> 100	–	> 100	> 100	> 100	> 100	–	> 100	–	–	–	–	–	–	–	–	–
Brc1cccc(Nc2nc(-c3cccs3)nc3ccc(Br)cc23)c1	> 100	> 100	> 100	91	> 100	> 100	> 100	> 100	> 100	–	–	–	–	–	–	–	–	–
COc1ccc(C#CC(=O)O)c(OC)c1	> 100	> 100	> 100	> 100	> 100	> 100	> 100	> 100	> 100	–	–	–	–	–	–	–	–	–
Cc1c2c(n(CCc3ccc(Cl)cc3)c1C)NN=C(C#N)S2(=O)=O	> 100	–	> 100	> 100	–	> 100	> 100	> 100	> 100	–	–	–	–	–	–	–	–	–
COc1cc2c(cc1-c1c(C)noc1C)cc(C)c(=O)n2Cc1ccccn1	> 100	> 100	> 100	> 100	–	22.2	> 100	> 100	> 100	1.57	3.13	1.45	0.566	1.91	3.47	6	1.76	–
O=[N+]([O-])/C(C(Cl)=C(Cl)Cl)=C(\Nc1cccc2cccnc12)SCc1ccccc1	55.3	97.4	14.4	64.4	–	33.5	36.1	36.5	88.4	–	–	–	–	–	–	–	–	–
COc1nc(C#CCC(C)O)nc(OC)n1 (stereo not given)	> 100	–	> 100	33.3	39.5	56.8	43.6	54.6	52.9	–	–	–	–	–	–	–	–	–
COc1ccc(CC(O)CN2CCOCC2)cc1 (stereo not given)	> 100	> 100	> 100	> 100	> 100	–	> 100	> 100	> 100	–	–	–	–	–	–	–	–	–
CC1(C)N=C(C(N)=O)c2ncn(CCCO)c2N1	> 100	> 100	–	> 100	> 100	> 100	> 100	> 100	> 100	–	–	–	–	–	–	–	–	–
Cc1c(S(=O)(=O)/N=C(\N)Nc2ccc(Cl)cc2)sc2ccc(Cl)cc12	33.6	–	78.1	32.2	38.9	45.9	31.5	28.2	46.8	–	–	–	–	–	–	–	–	–
COc1cc([N+](=O)[O-])c(OC)cc1-c1nc2sc(Cl)cn2c1/C=N/Nc1ccccn1	> 50	> 50	–	16.9	> 50	> 50	–	> 50	> 50	> 50	–	8.43	> 50	–	16.4	15.8	> 50	17.3
O=C(NCCCN(CCCCN(CCCNC(=O)C(F)(F)F)Cc1ccccc1)Cc1ccccc1)C(F)(F)F	22.1	51.7	39.9	30.1	26.9	26.8	23.6	–	59.5	–	–	–	–	–	–	–	–	–
CC(C)(C)NC(=O)/C(=C\Sc1ccccc1)c1ccc2c(c1)OCO2	–	> 100	> 100	> 100	> 100	53.4	65.8	73.7	> 100	–	–	–	–	–	–	–	–	–
CS(=O)(=O)OCCn1c(=O)n(CCOS(C)(=O)=O)c(=O)n(CCOS(C)(=O)=O)c1=O	> 100	> 100	> 100	> 100	> 100	> 100	> 100	–	> 100	–	–	–	–	–	–	–	–	–
O=c1cc(N=P(c2ccccc2)(c2ccccc2)c2ccccc2)n(-c2ccccc2)c(=O)n1-c1ccccc1	22	82.5	22	45.4	> 100	–	42.5	18.6	24.6	–	–	–	–	–	–	–	–	–
CCOc1cc(C2CC(c3ccc(NS(=O)(=O)c4cc([N+](=O)[O-])ccc4C)cc3)=NN2C(=O)c2ccccc2)ccc1O (stereo not given)	–	> 100	> 100	85.3	> 100	31.4	56.5	> 100	> 100	–	–	–	–	–	–	–	–	–
